Experimental findings from ChEMBL document CHEMBL1909046, “DrugMatrix in vitro pharmacology data” are described below.

In general, IC50 refers to the point on the concentration scale where inhibition reaches its midpoint.

Data set [1] has as its target 5-hydroxytryptamine receptor 4 (Cavia porcellus, UniProt O70528). The class given is cell membranes, Dunkin-Hartley, Striatum, Membrane. Further: in other assays of this panel Not Active means under 50% inhibition at 10 µM.
Data set [2] concerns the target T1, Amine oxidase [flavin-containing] A (Homo sapiens, UniProt P21397).
T1 sequence (P21397 whole entry): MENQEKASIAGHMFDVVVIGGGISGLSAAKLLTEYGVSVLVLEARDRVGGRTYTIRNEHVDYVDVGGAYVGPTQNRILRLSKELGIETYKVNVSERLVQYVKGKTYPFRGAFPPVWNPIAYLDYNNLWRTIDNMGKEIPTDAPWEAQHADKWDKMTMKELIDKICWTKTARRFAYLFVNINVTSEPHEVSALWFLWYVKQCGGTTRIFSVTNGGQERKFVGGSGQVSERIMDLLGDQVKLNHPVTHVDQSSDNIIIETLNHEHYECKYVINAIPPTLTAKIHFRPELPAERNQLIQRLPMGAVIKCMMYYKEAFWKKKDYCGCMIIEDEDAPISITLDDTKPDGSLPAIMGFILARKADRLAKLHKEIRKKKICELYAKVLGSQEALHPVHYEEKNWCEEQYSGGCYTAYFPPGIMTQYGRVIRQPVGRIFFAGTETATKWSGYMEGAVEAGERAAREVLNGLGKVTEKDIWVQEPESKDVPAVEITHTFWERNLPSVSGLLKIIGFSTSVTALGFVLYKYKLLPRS
Put plainly: DRUGMATRIX: Monoamine Oxidase MAO-A enzyme inhibition (substrate: Kynuramine). Also noted: species or system BTI-TN-5B1-4. The settings on record: Not Active = under 50% inhibition at 10 µM.

In data set [3] the target is T2, Muscarinic acetylcholine receptor M2 (Homo sapiens, UniProt P08172). Further: in other assays of this panel Not Active means under 50% inhibition at 10 µM.
T2 sequence (P08172 whole entry): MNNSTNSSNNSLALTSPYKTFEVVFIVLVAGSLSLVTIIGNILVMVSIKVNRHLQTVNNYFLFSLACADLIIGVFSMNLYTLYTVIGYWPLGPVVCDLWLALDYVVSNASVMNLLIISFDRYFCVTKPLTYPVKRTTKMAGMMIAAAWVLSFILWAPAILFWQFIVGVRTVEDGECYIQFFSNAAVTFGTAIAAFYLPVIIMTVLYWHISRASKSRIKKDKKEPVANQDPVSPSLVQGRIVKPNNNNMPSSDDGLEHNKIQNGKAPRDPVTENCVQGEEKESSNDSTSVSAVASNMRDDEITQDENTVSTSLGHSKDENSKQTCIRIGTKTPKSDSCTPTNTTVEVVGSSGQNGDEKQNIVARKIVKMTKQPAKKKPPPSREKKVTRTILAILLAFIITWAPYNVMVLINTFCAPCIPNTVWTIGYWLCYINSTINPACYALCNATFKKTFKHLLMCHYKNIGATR
The class given is cell membranes, CHO-K1, Membrane. The settings on record: cho-k1.

The target of data set [4] is T3, Caspase-1 (Homo sapiens, UniProt P29466).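 Further: Caspase-1 enzyme inhibition assay with a peptide substrate; in other assays of this panel Not Active means under 50% inhibition at 10 µM.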
T3 sequence (P29466 whole entry): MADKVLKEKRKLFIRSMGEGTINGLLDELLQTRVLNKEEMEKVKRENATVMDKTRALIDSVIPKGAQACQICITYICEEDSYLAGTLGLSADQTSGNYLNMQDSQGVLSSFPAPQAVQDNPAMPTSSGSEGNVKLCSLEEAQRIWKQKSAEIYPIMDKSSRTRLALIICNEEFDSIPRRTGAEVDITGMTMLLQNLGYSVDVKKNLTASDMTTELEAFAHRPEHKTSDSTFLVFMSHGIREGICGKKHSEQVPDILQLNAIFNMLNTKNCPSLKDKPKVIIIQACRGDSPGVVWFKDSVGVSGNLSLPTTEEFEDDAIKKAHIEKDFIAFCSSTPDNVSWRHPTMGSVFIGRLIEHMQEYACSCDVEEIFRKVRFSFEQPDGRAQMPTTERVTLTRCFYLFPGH
Also on record: species or system Escherichia coli.

In data set [5] the target is Protein kinase C alpha type (Homo sapiens, UniProt P17252). The data set is classed as cell-based. The settings on record: sf9.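 Further: inhibition of PKCalpha kinase activity measured in an enzyme assay with histone as the phosphorylation substrate; in other assays of this panel Not Active means under 50% inhibition at 10 µM.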
Data set [6] addresses T4, Cytochrome P450 1A2 (Homo sapiens, UniProt P05177).
T4 sequence (P05177 whole entry): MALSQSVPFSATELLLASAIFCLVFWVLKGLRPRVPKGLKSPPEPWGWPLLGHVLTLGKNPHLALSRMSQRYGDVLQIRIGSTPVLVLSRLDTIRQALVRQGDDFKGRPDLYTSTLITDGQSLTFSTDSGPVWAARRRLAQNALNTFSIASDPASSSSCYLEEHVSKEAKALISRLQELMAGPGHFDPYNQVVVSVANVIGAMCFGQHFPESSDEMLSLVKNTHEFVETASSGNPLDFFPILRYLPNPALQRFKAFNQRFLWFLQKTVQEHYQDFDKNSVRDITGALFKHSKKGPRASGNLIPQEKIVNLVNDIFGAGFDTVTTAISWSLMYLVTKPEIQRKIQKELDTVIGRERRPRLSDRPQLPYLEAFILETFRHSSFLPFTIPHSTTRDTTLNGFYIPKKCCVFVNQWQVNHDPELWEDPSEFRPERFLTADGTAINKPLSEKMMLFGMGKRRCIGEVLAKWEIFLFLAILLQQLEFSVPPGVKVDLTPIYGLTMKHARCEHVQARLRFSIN
The settings on record: bti-tn-5b1-4.

Sequence of 5-hydroxytryptamine receptor 4 (O70528 whole entry): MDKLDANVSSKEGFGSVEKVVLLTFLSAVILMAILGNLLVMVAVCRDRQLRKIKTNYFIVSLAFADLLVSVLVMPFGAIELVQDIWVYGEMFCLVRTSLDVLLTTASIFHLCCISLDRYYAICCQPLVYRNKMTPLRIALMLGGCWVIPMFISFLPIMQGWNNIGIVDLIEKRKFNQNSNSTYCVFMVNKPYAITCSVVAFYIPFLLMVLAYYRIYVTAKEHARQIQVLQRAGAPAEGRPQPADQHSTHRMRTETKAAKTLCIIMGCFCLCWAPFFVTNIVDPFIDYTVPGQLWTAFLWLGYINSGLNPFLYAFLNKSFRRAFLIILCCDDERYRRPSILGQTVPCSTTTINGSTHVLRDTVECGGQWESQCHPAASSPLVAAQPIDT

In the case of `O=C(O)c1cccnc1Nc1cccc(C(F)(F)F)c1` [NIFLUMIC ACID], the IC50 entry in data set [1], in data set [2] (bti-tn-5b1-4), in data set [3], in data set [4], in data set [5] and in data set [6] was “Not Active” each time. Moreover, the Ki result in data set [6] is “Not Active”.
With `C#CC1(O)CC[C@H]2[C@@H]3CCC4=CC(=O)CC[C@@H]4[C@H]3CC[C@@]21CC` (stereo partly specified) [NORGESTREL], the IC50 result in data set [1], in data set [2] (bti-tn-5b1-4), in data set [3], in data set [4], in data set [5] and in data set [6] was “Not Active” each time. The Ki entry in data set [6] is recorded as “Not Active”.
Consider `CCCN(CCC)S(=O)(=O)c1ccc(C(=O)O)cc1` [PROBENECID], for which the IC50 result in data set [1], in data set [2] (bti-tn-5b1-4), in data set [3], in data set [4], in data set [5] and in data set [6] was “Not Active” each time. Besides, the Ki result in data set [6] is on record as “Not Active”.
With `O=C1CN=C(c2ccccc2Cl)c2cc([N+](=O)[O-])ccc2N1` [CLONAZEPAM], the concentration for half-maximal inhibition (IC50) entry in data set [1], in data set [2] (bti-tn-5b1-4), in data set [3], in data set [4], in data set [5] and in data set [6] was “Not Active” each time. Moreover, the Ki entry in data set [6] is on record as “Not Active”.
`CC(C(=O)O)c1cccc(Oc2ccccc2)c1` (stereo unspecified) [FENOPROFEN]: the IC50 result in data set [1], in data set [2] (bti-tn-5b1-4), in data set [3], in data set [4], in data set [5] and in data set [6] was “Not Active” throughout. Moreover, in data set [6], the Ki entry was “Not Active”.
On to GENTAMICIN, for which the IC50 entry in data set [1], in data set [2] (bti-tn-5b1-4), in data set [3], in data set [4], in data set [5] and in data set [6] was “Not Active” in each case. Further, the Ki result in data set [1], in data set [2] (bti-tn-5b1-4), in data set [3], in data set [4], in data set [5] and in data set [6] was “Not Active” in each case.
`CC(=O)Oc1ccc(C(c2ccc(OC(C)=O)cc2)c2ccccn2)cc1` [BISACODYL]: the IC50 result in data set [1], in data set [2] (bti-tn-5b1-4), in data set [3], in data set [4], in data set [5] and in data set [6] was “Not Active” each time. In addition, the Ki result in data set [6] is recorded as “Not Active”.
For the compound `C[C@@H]1O[C@@H](O[C@@H]2C=C3CC[C@@H]4[C@H](CC[C@]5(C)[C@@H](c6ccc(=O)oc6)CC[C@]45O)[C@@]3(C)CC2)[C@H](O)[C@H](O)[C@H]1O` [PROSCILLARIDIN], the IC50 result in data set [1], in data set [2] (bti-tn-5b1-4), in data set [3], in data set [4], in data set [5] and in data set [6] was “Not Active” each time. Also, the Ki result in data set [6] is listed as “Not Active”.
In the case of `C[C@@H]1C[C@H]2[C@@H]3CCC4=CC(=O)C=C[C@]4(C)[C@@]3(F)[C@@H](O)C[C@]2(C)[C@@]1(O)C(=O)CO` [DEXAMETHASONE], the IC50 result in data set [1], in data set [2] (bti-tn-5b1-4), in data set [3], in data set [4], in data set [5] and in data set [6] was “Not Active” in each case. The Ki result in data set [6] is listed as “Not Active”.
As to `C[n+]1ccc(-c2cc[n+](C)cc2)cc1.[Cl-].[Cl-]` [PARAQUAT DICHLORIDE], the IC50 entry in data set [1], in data set [2] (bti-tn-5b1-4), in data set [3], in data set [4], in data set [5] and in data set [6] was “Not Active” in each case. The Ki result in data set [6] is listed as “Not Active”.
Regarding `Cc1cc2c(OCC(CNC(C)(C)C)OC(=O)c3ccccc3)cccc2[nH]1` (stereo unspecified) [BOPINDOLOL], the IC50 entry in data set [1], in data set [2] (bti-tn-5b1-4), in data set [3], in data set [4], in data set [5] and in data set [6] was “Not Active” throughout. Moreover, in data set [6], the Ki result is “Not Active”.
For `Nc1ccn([C@@H]2O[C@H](CO)[C@@H](O)C2(F)F)c(=O)n1` [GEMCITABINE], the IC50 result in data set [1], in data set [2] (bti-tn-5b1-4), in data set [3], in data set [4], in data set [5] and in data set [6] was “Not Active” in each case. Moreover, the Ki entry in data set [6] is listed as “Not Active”.
On to `Nc1ccn([C@@H]2O[C@H](CO)[C@@H](O)[C@@H]2O)c(=O)n1` [CYTARABINE], for which the concentration for half-maximal inhibition (IC50) entry in data set [1], in data set [2] (bti-tn-5b1-4), in data set [3], in data set [4], in data set [5] and in data set [6] was “Not Active” each time. Further, the Ki entry in data set [6] is on record as “Not Active”.
GADOPENTETATE DIMEGLUMINE: the IC50 result in data set [1], in data set [2] (bti-tn-5b1-4), in data set [3], in data set [4], in data set [5] and in data set [6] was “Not Active” in each case. Moreover, the Ki entry in data set [1], in data set [2] (bti-tn-5b1-4), in data set [3], in data set [4], in data set [5] and in data set [6] was “Not Active” in each case.
As to `C=CCc1ccc(O)c(OC)c1` [EUGENOL], the IC50 result in data set [1], in data set [2] (bti-tn-5b1-4), in data set [3], in data set [4], in data set [5] and in data set [6] was “Not Active” in each case. Further, the Ki result in data set [6] is “Not Active”.
In the case of `COC(=O)Nc1nc2ccc(C(=O)c3cccs3)cc2[nH]1` [NOCODAZOLE], the IC50 entry in data set [1] was “Not Active”; in data set [2] (read-out: IC50), 24.1 µM; in data set [3] it was “Not Active”; in data set [4] it was “Not Active”; in data set [5], “Not Active”; in data set [6], “Not Active”. Moreover, the Ki result in data set [6] is listed as “Not Active”.
For the compound AURANOFIN, the 50% inhibitory concentration (IC50) result in data set [1], in data set [2] (bti-tn-5b1-4), in data set [3], in data set [4], in data set [5] and in data set [6] was “Not Active” throughout. In addition, the Ki entry in data set [1], in data set [2] (bti-tn-5b1-4), in data set [3], in data set [4], in data set [5] and in data set [6] was “Not Active” in each case.
Take `Cc1nnc2n1-c1ccc(Cl)cc1C(c1ccccc1)=NC2` [ALPRAZOLAM]: the IC50 entry in data set [1], in data set [2] (bti-tn-5b1-4), in data set [3], in data set [4] and in data set [6] was “Not Active” each time. Moreover, the Ki result in data set [5] and in data set [6] was “Not Active” throughout.
